This note sets out measurements from patent US5882851A, “Cytochrome P-450 monooxygenases” (Novartis Finance Corporation, priority 1993, dated 1999).

Data set [1] has as its target T1, cytochrome P-450TYR (Sorghum bicolor, UniProt Q43135).
T1 construct: from tissue; host or cells: microsomes of etiolated Sorghum bicolor seedlings, solubilised and purified by dye columns
The experiment in a line: Reconstitution of cytochrome P-450TYR activity in DLPC micelles. The class given is biochemical. The source says:
Reconstitution of the enzyme activity of a microsomal P-450 enzyme is accomplished by insertion of the cytochrome P-450 enzyme and the corresponding NADPH-cytochrome P-450 oxidoreductase into appropriate lipid micelles made from different commercially available lipids. Isolation of NADPH-cytochrome P-450 oxidoreductase is done according to Halkier and Moller, Plant Physiol. 96:10-17, 1990. A mixture of lipids can be used but with cytochrome P-450TYR di-lauroyl-phosphatidyl choline (DLPC) provides the best enzymatic activity. One rate limiting factor of this rate limiting reaction is the number of correctly formed complexes of cytochrome P-450TYR and NADPH-cytochrome P-450 oxidoreductase. Excess amounts of the oxidoreductase and concentrated enzyme solutions ensure a sufficient number of active complexes.
A reconstituted enzyme is obtained using the following components:
Cytochrome P-450TYR : 100 μg/ml in 50 mM potassium phosphate buffer pH 7,9
Oxidoreductase, purified from Sorghum bicolor: 100 μg/ml in 50 mM potassium phosphate buffer pH 7,9
Lipid: 10 mg/ml di-lauroyl-phosphatidyl choline, sonicated in 50 mM potassium phosphate buffer pH 7,9
^14 C-tyrosine: commercially available from Amersham; [U-^14 C]-L-tyrosine 0.5 μCi
10 μl of the lipid suspension is mixed in a glass vial with 50 μl of the cytochrome P-450TYR (0-1.5 pmol) solution. 50 μl of the oxidoreductase (0-0.15 U) solution is added and then 10 μl tyrosine solution and 10 μl NADPH solution are added and the mixture is sonicated in a Branson 5200 sonication bath for one minute. The reaction mixture is subsequently incubated for 1 hour at 30° C. At the end of the incubation period the reaction is stopped by transferring the glass vials onto ice. Radioactively labelled intermediates formed are extracted into 50 μl ehtyl acetate, applied to a silica coated TLC plate and developed using an ethyl acetate/toluene (1:5 v/v) mixture as mobile phase. The resultant product, p-hydroxyphenylacetaldehyde oxime is visualized by autoradiography of the TLC plate. Alternatively, the intermediates are analyzed by reverse-phase HPLC coupled to a Berthold radioactiviy monitor. The HPLC separation was carried out using a nucleosil 100-10C18 column isocratically eluted with 1,5% 2-propanol in 25 mM Hepes pH 7,9 (Halkier et al, J. Biol. Chem. 264:19487-19494, 1989). Control samples may be made by omitting either cytochrome P-450 oxidoreductase or NADPH.

The target of data set [2] is T2, cytochrome P-450TYR (Sorghum bicolor, UniProt Q43135).
T2 construct: from tissue; host or cells: microsomes of etiolated Sorghum bicolor seedlings, solubilised and purified by dye columns
T2 sequence (Q43135 1-558): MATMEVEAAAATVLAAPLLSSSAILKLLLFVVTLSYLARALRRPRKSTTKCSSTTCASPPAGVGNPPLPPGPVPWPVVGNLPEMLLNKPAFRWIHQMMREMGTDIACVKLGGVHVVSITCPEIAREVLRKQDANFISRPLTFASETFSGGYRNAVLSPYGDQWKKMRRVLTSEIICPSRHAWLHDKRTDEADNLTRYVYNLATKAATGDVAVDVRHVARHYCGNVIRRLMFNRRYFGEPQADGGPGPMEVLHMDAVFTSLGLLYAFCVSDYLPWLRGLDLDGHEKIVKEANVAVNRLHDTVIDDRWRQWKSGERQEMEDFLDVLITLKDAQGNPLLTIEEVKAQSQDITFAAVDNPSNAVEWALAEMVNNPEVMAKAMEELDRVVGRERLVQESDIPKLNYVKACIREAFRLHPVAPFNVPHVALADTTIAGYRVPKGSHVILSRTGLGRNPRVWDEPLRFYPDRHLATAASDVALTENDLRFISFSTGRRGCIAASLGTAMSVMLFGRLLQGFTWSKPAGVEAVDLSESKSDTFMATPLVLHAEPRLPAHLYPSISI
The experiment in a line: Substrate binding spectra of isolated sorghum cytochrome P-450TYR (difference spectrum A390-420). On the procedure: Cytochrome P-450 substrate binding spectra are recorded with stepwise increased substrate concentration until saturating conditions are reached.
Cytochrome P-450TYR in the oxidized state has a strong absorption peak at 420 nm, representing the low spin state of the iron of the heme group. The binding of a ligand to the heme group shifts the absorption maximum by changing the spin state of the iron. […] The following experimental procedure is used to obtain the substrate binding spectrum: two identical cuvettes containing a buffered solution of the isolated cytochrome P-450 are prepared. The substrate of the enzyme is added to the sample cuvette whereas the same volume of buffer is added to the other cuvette. The difference spectrum is then recorded in an SLM-Aminco DW2c spectrophotometer. The absorption difference, A390-420, is proportional to the concentration of cytochrome P-450TYR with a bound substrate at its active site. If a saturating concentration of substrate is added to the sample cuvette, the absorption difference is proportional to the concentration of the substrate specific cytochrome P-450 in the cuvettes. The saturating concentration of the substrate is determined by titrating the cytochrome P-450 sample with increasing amounts of substrate and monitoring A390-420.
If a cytochrome P-450 sample can be saturated with two different substrates, there may be two different cytochrome P-450 enzymes in the sample, or there may be one cytochrome P-450 enzyme able to bind to both substrates. To discriminate between these possibilities, saturating amounts of the two substrates are added sequentially and the A390-420absorption change is monitored. If, independent of the order of addition, the addition of the second sample gives rise to an increased A390-420value compared to the value after the addition of the first substrate, the two substrates are bound by different enzymes. If A390-420 remains unchanged upon addition of the second substrate, independent of the order of addition, both substrates bind to the same active site, i.e. to the same cytochrome P-450 enzyme.

Take `N[C@@H](Cc1ccc(O)cc1)C(=O)O` [tyrosine, L-tyrosine]: the turn-over number on cytochrome P-450TYR [1] (in the absence of added salt) is 228 min⁻¹; at cytochrome P-450TYR [1] (in the presence of 15 mM NaCl) it was 198 min⁻¹. Further, the “initial A390-420” value is listed as 0,0437 on cytochrome P-450TYR [2] (30 μl 5 mM tyrosine added to 500 μl P-450TYR), 0,0496 at cytochrome P-450TYR [2] (60 μl 5 mM tyrosine) and 0,0486 on cytochrome P-450TYR [2] (90 μl 5 mM tyrosine). Further, the “resulting A390-420” value at cytochrome P-450TYR [2] (30 μl 5 mM tyrosine, dilution factor 530/500) is 0,0463; at cytochrome P-450TYR [2] (60 μl 5 mM tyrosine, dilution factor 560/500) it was 0,0556; at cytochrome P-450TYR [2] (90 μl 5 mM tyrosine, dilution factor 590/500), 0,0573. Besides, the “type of substrate binding spectrum” value on cytochrome P-450TYR [2] (isolated sorghum P-450TYR) is on record as “type I binding spectrum”.
